# Source: publication PMC8412337, “Alpha-single chains of collagen type VI inhibit the fibrogenic effects of triple helical collagen VI in hepatic stellate cells” (PLoS ONE, 2021)
# System: CFSC
# Experiment: Fibrosis-associated gene expression, quantitative real-time PCR
# Assay type: cell-based, rat
# Protocol: 30 mg/l CVI, 133 mg/l of the monomeric alpha chains of CVI and/or TGF-β (2 ng/ml) were added after 24 h. […] Reverse transcribed complementary DNA templates were amplified by quantitative real-time polymerase chain reaction (PCR; Roche Diagnostics, Mannheim, Germany) using fluorogenic probes labeled with 6-carboxy-fluorescein and 6-carboxy-tetramethylrhodamin (Sigma- Genosys, Steinheim, Germany) and primer pairs (Invitrogen, Karlsruhe, Germany) specific for fibrosis-associated genes (for sequences see S2 Table). Gene expressions were normalized to glyceraldehyde phosphate dehydrogenase (GAPDH).
substance,measurement,setting,value
"CVI: Human collagen VI isolated from placentas by pepsin digestion; triple helical, soluble",kinetics of CI expression compared with TGF-β,"CFSC, medium containing 0.2% FBS, S3 Fig",slightly decreased and delayed
same,"αSMA, CI and TGF-β expression","serum-starved CFSC, 30 mg/l CVI, 24 h, qPCR normalized to GAPDH",potently induced
same,reduction of the expression of MMP-3,"serum-starved CFSC, 24 h, TGF-β 2 ng/ml, CVI 30 mg/l, qPCR normalized to GAPDH",only slightly reduced
same,expression of TIMP-1,"serum-starved CFSC, 24 h, qPCR normalized to GAPDH",stimulated the expression of TIMP-1
